Measured values: patent US8101647B2, “Spiro-oxindole compounds and their use as therapeutic agents” (Xenon Pharmaceuticals Inc., priority 2008, dated 2012)

How the values were obtained:
sodium channel = test: Guanidine influx assay; assay type: cell-based, human or rat; conditions: known cell line that expresses a sodium channel; read-out: IC50 Activity Level
Text: This example describes an in vitro assay for testing and profiling test agents against human or rat sodium channels stably expressed in cells of either an endogenous or recombinant origin. The assay is also useful for determining the IC50 of a sodium channel blocking compound. The assay is based on the guanidine flux assay described by Reddy, N. L., et al., J. Med. Chem. (1998), 41(17):3298-302.
The guanidine influx assay is a radiotracer flux assay used to determine ion flux activity of sodium channels in a high-throughput microplate-based format. The assay uses ^14C-guanidine hydrochloride in combination with various known sodium channel modulators, to assay the potency of test agents. Potency is determined by an IC50 calculation. Selectivity is determined by comparing potency of the compound for the channel of interest to its potency against other sodium channels (also called ‘selectivity profiling’).
Each of the test agents is assayed against cells that express the channels of interest. Voltage gated sodium channels are either TTX sensitive or insensitive. This property is useful when evaluating the activities of a channel of interest when it resides in a mixed population with other sodium channels. The following Table 1 summarizes cell lines useful in screening for a certain channel activity in the presence or absence of TTX.
It is also possible to employ recombinant cells expressing these sodium channels. Cloning and propagation of recombinant cells are known to those skilled in the art (see, for example, Klugbauer, N, et al., EMBO J. (1995), 14(6):1084-90; and Lossin, C., et al., Neuron (2002), 34, pp. 877-884).
Cells expressing the channel of interest are grown according to the supplier or in the case of a recombinant cell in the presence of selective growth media such as G418 (Gibco/Invitrogen). The cells are disassociated from the culture dishes with an enzymatic solution (1×) Trypsin/EDTA (Gibco/Invitrogen) and analyzed for density and viability using haemocytometer (Neubauer). Disassociated cells are washed and resuspended in their culture media then plated into Scintiplates (Beckman Coulter Inc.) (approximately 100,000 cells/well) and incubated at 37° C./5% CO2. for 20-24 hours. After an extensive wash with Low sodium HEPES-buffered saline solution (LNHBSS) (150 mM Choline Chloride, […] (Sigma), 1 mM Calcium Chloride, 5 mM Potassium Chloride, 1 mM Magnesium Chloride, 10 mM Glucose) agents diluted with LNHBSS are added to each well. (Varying concentrations of test agent may be used). The activation/radiolabel mixture contains aconitine (Sigma) to increase the percentage of time that the sodium channels are open, and ^14C-guanidine hydrochloride (ARC) to measure flux through the voltage-gated sodium channels.
After loading the cells with test agent and activation/radiolabel mixture, the Scintiplates are incubated at ambient temperature. Following the incubation, the Scintplates are extensively washed with LNHBSS supplemented with guanidine (Sigma). The Scintiplates are dried and then counted using a Wallac MicroBeta TriLux (Perkin-Elmer Life Sciences). The ability of the test agent to block sodium channel activity is determined by comparing the amount of ^14C-guanidine present inside the cells expressing the different sodium channels.
The IC50 value of a test agent for a specific sodium channel may be determined using the above general method. […] Typically the mid-point concentration of test agent is set at 1 μM, and sequential concentrations of half dilutions greater or smaller are applied (e.g. 0.5 μM; 5 μM and 0.25 μM; 10 μM and 0.125 μM; 20 μM etc.). The IC50 curve is calculated using the 4 Parameter Logistic Model or Sigmoidal Dose-Response Model formula (fit=(A+((B−A)/(1+((C/x)^D)))).
The fold selectivity, factor of selectivity or multiple of selectivity, is calculated by dividing the IC50 value of the test sodium channel by the reference sodium channel, for example, NaV1.5. […]

CYP3A4 = target: T1, CYP3A4 (Homo sapiens, UniProt P08684); test: Cytochrome P450 (CYP450) inhibition assay, fluorescence-based; assay type: in vitro ADME; conditions: recombinant CYP3A4 (P450 Baculosomes), probe Vivid substrate (fluorogenic)
T1 construct: purchased Invitrogen Corporation (Vivid CYP450 Screening Kit)
T1 sequence (P08684 whole entry): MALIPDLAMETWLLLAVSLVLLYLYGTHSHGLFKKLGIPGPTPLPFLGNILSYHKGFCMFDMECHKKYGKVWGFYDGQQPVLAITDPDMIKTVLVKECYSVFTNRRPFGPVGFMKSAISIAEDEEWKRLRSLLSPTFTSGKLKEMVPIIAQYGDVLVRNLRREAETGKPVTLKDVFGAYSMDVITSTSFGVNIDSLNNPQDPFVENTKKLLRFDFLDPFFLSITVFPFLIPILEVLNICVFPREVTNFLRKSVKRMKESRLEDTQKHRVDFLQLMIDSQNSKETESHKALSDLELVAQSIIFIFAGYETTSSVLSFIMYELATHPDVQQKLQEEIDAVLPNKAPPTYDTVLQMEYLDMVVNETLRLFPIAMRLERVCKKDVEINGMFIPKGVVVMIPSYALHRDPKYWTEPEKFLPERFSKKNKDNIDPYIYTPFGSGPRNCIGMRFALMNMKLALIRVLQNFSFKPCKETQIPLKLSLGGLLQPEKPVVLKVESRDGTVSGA

Structure (SMILES)	melting point	IC50 (sodium channel)	inhibition at 10 µM (CYP3A4)
Cl.O=C1N(Cc2ccc(N[C@@H]3CCNC3)cc2)c2ccccc2C12COc1cc3c(cc12)OCO3 (stereo partly drawn)	190 to 195 °C		
CN(C)CCOc1ccc2c(c1)OCC21C(=O)Nc2ccccc21 (stereo not drawn) [Example 2, 6-[2-(dimethylamino)ethoxy]spiro[1-benzofuran-3,3′-indol]-2′(1′H)-one]	95 to 97 °C	≥ 10000 nM	
CC(C)[Si](Oc1ccc2c(c1)OCC21C(=O)N(C[C@H]2CCCO2)c2ccccc21)(C(C)C)C(C)C (stereo partly drawn) [Example 4, 1′-[(2R)-tetrahydrofuran-2-ylmethyl]-6-{[tris(1-methylethyl)silyl]oxy}spiro[1-benzofuran-3,3′-indol]-2′(1′H)-one]		100 to 1000 nM	
CC(C)(C)OC(=O)N1CC[C@@H](Nc2ccc(CN3C(=O)C4(COc5cc6c(cc54)OCO6)c4ccccc43)cc2)C1 (stereo partly drawn) [Example 5, tert-butyl (3R)-3-({4-[(2′-oxospiro[furo[2,3-f][1,3]benzodioxole-7,3′-indol]-1′(2′H)-yl)methyl]phenyl}-amino)pyrrolidine-1-carboxylate]	115 to 118 °C		
O=C1N(Cc2ccc(N[C@@H]3CCNC3)cc2)c2ccccc2C12COc1cc3c(cc12)OCO3 (stereo partly drawn) [Example 6, 1′-{4-[(3R)-pyrrolidin-3-ylamino]benzyl}spiro[furo[2,3-f][1,3]benzodioxole-7,3′-indol]-2′(1′H)-one]	118 to 121 °C		
CC(=O)N1CCC[C@H]1CN1C(=O)C2(COc3cc4c(cc32)CCO4)c2ccccc21 (stereo partly drawn) [Example 8, 1′-{[(2S)-1-acetylpyrrolidin-2-yl]methyl}-5,6-dihydrospiro[benzo[1,2-b:5,4-b′]difuran-3,3′-indol]-2′(1′H)-one]	103 to 108 °C	1000 to 10000 nM	> 50%
N/C(CN1C(=O)C2(COc3cc4c(cc32)OCO4)c2c(Cl)cccc21)=N\OC(=O)C1CC1 (stereo not drawn) [Example 11, 2-(4′-chloro-2′-oxospiro[furo[2,3-f][1,3]benzodioxole-7,3′-indol]-1′(2′H)-yl)-N′-[(cyclopropylcarbonyl)oxy]ethanimidamide]		100 to 1000 nM	> 50%
NC(=O)COc1cccc(CN2C(=O)C3(COc4cc5c(cc43)CCO5)c3ccccc32)c1 (stereo not drawn) [Example 13, 2-{3-[(2-oxo-5,6-dihydrospiro[benzo[1,2-b:5,4-b]difuran-3,3-indol]-1(2H)-yl)methyl]phenoxy}acetamide]	109 to 111 °C	1 to 100 nM	> 50%
NC(=O)COc1ccc(CN2C(=O)C3(COc4cc5c(cc43)CCO5)c3ccccc32)cc1 (stereo not drawn) [Example 13.1, 2-{4-[(2′-oxo-5,6-dihydrospiro[benzo[1,2-b:5,4-b′]difuran-3,3′-indol]-1′(2′H)-yl)methyl]phenoxy}acetamide]	215 to 216 °C	1 to 100 nM	< 50%
COCCOc1ccc(CN2C(=O)C3(COc4cc5c(cc43)OCCO5)c3ccccc32)cc1 (stereo not drawn) [Example 13.3, 1′-[4-(2-methoxyethoxy)benzyl]-2,3-dihydrospiro[furo[2,3-g][1,4]benzodioxine-8,3′-indol]-2′(1′H)-one]	124 to 125 °C	1 to 100 nM	> 50%
CCOC(=O)COc1ccc(CN2C(=O)C3(COc4cc5c(cc43)CCO5)c3ccccc32)cc1 (stereo not drawn) [Example 14.1, ethyl {4-[(2′-oxo-5,6-dihydrospiro[benzo[1,2-b:5,4-b′]difuran-3,3′-indol]-1′(2′H)-yl)methyl]phenoxy}acetate]	158 to 159 °C	1 to 100 nM	< 50%
CCOC(=O)COc1ccc(CN2C(=O)C3(COc4cc5c(cc43)OCCO5)c3ccccc32)cc1 (stereo not drawn) [Example 14.2, ethyl {4-[(2′-oxo-2,3-dihydrospiro[furo[2,3-g][1,4]benzodioxine-8,3′-indol]-1′(2′H)-yl)methyl]phenoxy}acetate]	59 to 61 °C	1 to 100 nM	< 50%
O=C(O)COc1cccc(CN2C(=O)C3(COc4cc5c(cc43)CCO5)c3ccccc32)c1 (stereo not drawn) [Example 15, {3-[(2′-oxo-5,6-dihydrospiro[benzo[1,2-b:5,4-b′]difuran-3,3′-indol]-1′(2′H)-yl)methyl]phenoxy}acetic acid]	95 to 96 °C	1000 to 10000 nM	< 50%
O=C(O)COc1ccc(CN2C(=O)C3(COc4cc5c(cc43)CCO5)c3ccccc32)cc1 (stereo not drawn) [Example 15.1, {4-[(2′-oxo-5,6-dihydrospiro[benzo[1,2-b:5,4-b′]difuran-3,3′-indol]-1′(2′H)-yl)methyl]phenoxy}acetic acid]	265 to 266 °C		< 50%
O=C(O)COc1ccc(CN2C(=O)C3(COc4cc5c(cc43)OCCO5)c3ccccc32)cc1 (stereo not drawn) [Example 15.2, {4-[(2′-oxo-2,3-dihydrospiro[furo[2,3-g][1,4]benzodioxine-8,3′-indol]-1′(2′H)-yl)methyl]phenoxy}acetic acid]	223 to 224 °C		< 50%
CNC(=O)COc1cccc(CN2C(=O)C3(COc4cc5c(cc43)CCO5)c3ccccc32)c1 (stereo not drawn) [Example 16, N-methyl-2-{3-[(2′-oxo-5,6-dihydrospiro[benzo[1,2-b:5,4-b′]difuran-3,3′-indol]-1′(2′H)-yl)methyl]phenoxy}acetamide]	175 to 176 °C	1 to 100 nM	> 50%
C[S+]([O-])c1ccc(CN2C(=O)C3(COc4cc5c(cc43)CCO5)c3ccccc32)cc1 (stereo not drawn) [Example 17, 1′-[4-(methylsulfinyl)benzyl]-5,6-dihydrospiro[benzo[1,2-b:5,4-b′]difuran-3,3′-indol]-2′(1′H)-one]		100 to 1000 nM	> 50%
CS(=O)(=O)N(c1ccc2c(c1)OCC21C(=O)N(C[C@H]2CCCO2)c2ccccc21)S(C)(=O)=O (stereo partly drawn) [Example 18, N-(methylsulfonyl)-N-{2′-oxo-1′-[(2R)-tetrahydrofuran-2-ylmethyl]-1′,2′-dihydrospiro[1-benzofuran-3,3′-indol]-6-yl}methanesulfonamide]		1000 to 10000 nM	< 50%
CC(N)COc1ccc2c(c1)OCC21C(=O)N(C[C@H]2CCCO2)c2ccccc21.Cl (stereo partly drawn) [Example 20, 6-(2-aminopropoxy)-1′-[(2R)-tetrahydrofuran-2-ylmethyl]spiro[1-benzofuran-3,3′-indol]-2′(1′H)-one hydrochloride]	120 to 130 °C	1000 to 10000 nM	< 50%
CN(C)CCOc1ccc2c(c1)OCC21C(=O)N(C[C@H]2CCCO2)c2ccccc21 (stereo partly drawn) [Example 21, 6-[2-(dimethylamino)ethoxy]-1′-[(2R)-tetrahydrofuran-2-ylmethyl]spiro[1-benzofuran-3,3′-indol]-2′(1′H)-one]		1000 to 10000 nM	< 50%
O=C1N(C[C@H]2CCCO2)c2ccccc2C12COc1cc3c(cc12)C(=NO)CO3 (stereo partly drawn) [Example 24, 1′-[(2R)-tetrahydrofuran-2-ylmethyl]spiro[benzo[1,2-b:5,4-b′]difuran-3,3′-indole]-2′,5(1′H,6H)-dione 5-oxime]	82 to 100 °C	1000 to 10000 nM	> 50%
N/C(CN1C(=O)C2(COc3cc4c(cc32)OCO4)c2ccccc21)=N\O (stereo not drawn) [Example 25, (1Z)-N′-hydroxy-2-(2′-oxospiro[furo[2,3-f][1,3]benzodioxole-7,3′-indol]-1′(2′H)-yl)ethanimidamide]	235 to 238 °C	100 to 1000 nM	> 50%
